# Biological target: T1, mAChR M1 (UniProt P11229)
# T1 sequence (P11229 1-460): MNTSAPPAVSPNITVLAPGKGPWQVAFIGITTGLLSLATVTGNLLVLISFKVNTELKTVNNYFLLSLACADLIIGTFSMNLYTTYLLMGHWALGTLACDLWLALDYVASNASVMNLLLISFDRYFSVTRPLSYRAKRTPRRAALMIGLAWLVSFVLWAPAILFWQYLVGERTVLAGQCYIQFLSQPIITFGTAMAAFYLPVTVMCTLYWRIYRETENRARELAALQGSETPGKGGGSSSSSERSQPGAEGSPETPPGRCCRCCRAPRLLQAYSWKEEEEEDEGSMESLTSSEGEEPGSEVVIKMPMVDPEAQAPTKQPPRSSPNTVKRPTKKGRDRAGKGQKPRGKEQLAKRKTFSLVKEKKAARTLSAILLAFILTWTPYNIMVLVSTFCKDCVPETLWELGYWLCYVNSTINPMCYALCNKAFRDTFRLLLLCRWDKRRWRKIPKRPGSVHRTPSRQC
# Test: mAChR M1 cell-based functional assay (calcium mobilization, potentiation of EC20 acetylcholine response)
# Settings: for Emax (%): % ACh maximum at 30 μM, mAChR M1-expressing CHO-K1 cells, calcium flux; for pEC50 / EC50: positive allosteric modulation of EC20 ACh response, mAChR M1 CHO-K1 cells; for pEC50: <5 estimated where no plateau; for EC50: >10 μM estimated where no plateau, read-out: EC50
# Experimental: Chinese hamster ovary (CHO-K1) cells stably expressing rat (r)M1 were purchased from the American Type Culture Collection and cultured according to their indicated protocol. […] To make stable rM2, hM2, rM3, hM4, and rM4 cell lines for use in calcium mobilization assays, these cells also were stably transfected with a chimeric G-protein (Gqi5) (provided by B. R. Conklin, University of California, San Francisco) using Lipofectamine 2000. rM1, hM1, rM3, hM3, rM5, and hM5 cells were grown in Ham's F-12 medium containing 10% heat-inactivated fetal bovine serum (FBS), 20 mM HEPES, and 50 μg/mL G418 sulfate. rM2-Gqi5, hM2-Gqi5, and hM4-Gqi5 cells were grown in the same medium also containing 500 μg/mL Hygromycin B. Stable rM4-Gqi5 cells were grown in DMEM containing 10% heat-inactivated FBS, 20 mM HEPES, 400 μg/mL G418 sulfate, and 500 μg/mL Hygromycin B.
# For high throughput measurement of agonist-evoked increases in intracellular calcium, CHO-K1 cells stably expressing muscarinic receptors were plated in growth medium lacking G418 and hygromycin at 15,000 cells/20 μL/well in Greiner 384-well black-walled, tissue culture (TC)-treated, clear-bottom plates (VWR). Cells were incubated overnight at 37° C. and 5% CO2. […] Compound master plates were formatted in an 11 point CRC format (1:3 dilutions) in 100% DMSO with a starting concentration of 10 mM using the BRAVO liquid handler (Agilent). Test compound CRCs were then transferred to daughter plates (240 nL) using the Echo acoustic plate reformatter (Labcyte, Sunnyvale, Calif.) and then diluted into assay buffer (40 μL) to a 2× stock using a Thermo Fisher Combi (Thermo Fisher Scientific, Waltham, Mass.).
# Calcium flux was measured using the Functional Drug Screening System (FDSS) 6000 (Hamamatsu Corporation, Tokyo, Japan) as an increase in the fluorescent static ratio. Compounds were applied to cells (20 μL, 2×) using the automated system of the FDSS 6000 at 4 s into the 300 s protocol and the data were collected at 1 Hz. […] Agonist activity was analyzed as a concentration-dependent increase in calcium mobilization upon compound addition. Positive allosteric modulator activity was analyzed as a concentration-dependent increase in the EC20 acetylcholine response. Antagonist activity was analyzed as a concentration-dependent decrease in the EC80 acetylcholine response. Concentration-response curves were generated using a four-parameter logistical equation in XLfit curve fitting software (IDBS, Bridgewater, N.J.) for Excel (Microsoft, Redmond, Wash.) or Prism (GraphPad Software, Inc., San Diego, Calif.).
# The above described assay was also operated in a second mode where an appropriate fixed concentration of the present compounds were added to the cells after establishment of a fluorescence baseline for about 3 seconds, and the response in cells was measured. […] Data were reduced as described above and the EC50 values for the agonist in the presence of test compound were determined by nonlinear curve fitting. A decrease in the EC50 value of the agonist with increasing concentrations of the present compounds (a leftward shift of the agonist concentration-response curve) is an indication of the degree of muscarinic positive allosteric modulation at a given concentration of the present compound. An increase in the EC50 value of the agonist with increasing concentrations of the present compounds (a rightward shift of the agonist concentration response curve) is an indication of the degree of muscarinic antagonism at a given concentration of the present compound. The second mode also indicates whether the present compounds also affect the maximum response of the muscarinic receptor to agonists.
# The calcium mobilization assay was also used to determine “efficacy”.
Emax (%),pEC50,EC50 [nM],Structure (SMILES)
56,<5.00,> 10000,O=C1c2ncccc2CN1Cc1ccc(-c2ccncc2)cc1F [Example B65]
52,5.84,1440,O=C1c2ncccc2CN1Cc1ccc(-c2cnc3ccccc3c2)cc1F [Example B66]
56,5.28,5250,O=C1c2ncccc2CN1Cc1ccc(-c2cccnc2)cc1Cl [Example B67]
56,<5.00,> 10000,O=C1c2ncccc2CN1Cc1ccc(-c2ccncc2)cc1Cl [Example B68]
52,5.87,1350,O=C1c2ncccc2CN1Cc1ccc(-c2ccc3cnccc3c2)cc1Cl [Example B69]
59,5.68,2090,O=C1c2ncccc2CN1Cc1ccc(-c2ccc3ccncc3c2)cc1F [Example B70]
72,6.15,708,Cn1cc2cc(-c3ccc(CN4Cc5cccnc5C4=O)c(F)c3)ccc2n1 [Example B71]
79,5.70,2000,Cn1cc2ccc(-c3ccc(CN4Cc5cccnc5C4=O)c(F)c3)cc2n1 [Example B72]
38,<5.00,> 10000,O=C1c2ncccc2CN1Cc1ccc(-c2cncc(Cl)c2)cc1F [Example B73]
58,5.73,1860,CN(C)c1ccc(-c2ccc(CN3Cc4cccnc4C3=O)c(Cl)c2)cn1 [Example B74]
42,5.70,2000,Cc1cc(-c2ccc(CN3Cc4cccnc4C3=O)c(Cl)c2)cnc1Cl [Example B75]
35,5.83,1480,COc1ccc(-c2ccc(CN3Cc4cccnc4C3=O)c(Cl)c2)cc1 [Example B76]
42,5.74,1820,O=C1c2ncccc2CN1Cc1ccc(-c2cccc3ncccc23)cc1F [Example B77]
48,5.90,1260,CN(C)c1ccc(-c2ccc(CN3Cc4cccnc4C3=O)c(F)c2)cn1 [Example B78]
62,5.83,1480,O=C1c2ncccc2CN1Cc1ccc(-c2ccc3cnccc3c2)cc1F [Example B79]
57,6.07,851,O=C1c2cccnc2CN1Cc1c(F)cc(-c2ccc3nccn3c2)cc1F [Example B80]
80,6.80,158,Cn1cc2c(-c3cc(F)c(CN4Cc5ncccc5C4=O)c(F)c3)cccc2n1 [Example B81]
72,6.40,398,Cn1cnc2ccc(-c3cc(F)c(CN4Cc5ncccc5C4=O)c(F)c3)cc21 [Example B82]
34,<5.00,> 10000,Cc1cc(-c2cnc(Cl)c(C)c2)ccc1CN1Cc2cccnc2C1=O [Example B83]
41,<5.00,> 10000,Cc1cc(-c2ccncc2)ccc1CN1Cc2cccnc2C1=O [Example B84]
41,<5.00,> 10000,Cc1cc(-c2cccnc2)ccc1CN1Cc2cccnc2C1=O [Example B85]

# From US10654847B2, “Substituted 2-(4-heterocyclylbenzyl)isoindolin-1-one analogs as positive allosteric modulators of the muscarinic acetylcholine receptor M1” (Vanderbilt University, priority 2011, dated 2020)
